The values below come from ChEMBL document CHEMBL1201862, “PubChem BioAssay data set” (2004).

Some test systems named below: CCRF-CEM; NCI/ADR-RES; UACC-257; RXF 393; K562; OVCAR-4; BT-549; HCT-15; EKVX; SF-268; A498; SK-OV-3; SR; OVCAR-3; SW-620; PC-3; NCI-H23; SK-MEL-5; M14; TK-10.
Holding throughout (assay): DTP human tumour cell line panel, 48 h

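Cells were grown in 96-well plates and exposed to each compound for 48 hours at five concentrations; endpoints were interpolated linearly between bracketing concentrations, or set to the highest concentration if not reached. Abbreviation: GI50, concentration required for 50% inhibition of growth.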 Active and inactive are the calls of the source. No stated cut-off is given here; in the data, active = GI50 up to about 1.1 µM and inactive = higher.

In the case of `CNc1ncccc1Nc1cc(=O)n2c3cccnc3n(C)c2c1`, the GI50 (commonly the concentration that inhibits growth by half) is > 100 µM (inactive) with CCRF-CEM; > 100 µM (inactive) in the test with NCI/ADR-RES; > 100 µM (inactive) with UACC-257; 20.6 µM (inactive) in the test with RXF 393; > 100 µM (inactive) in the test on K562; 38.9 µM (inactive) with OVCAR-4. Moreover, the GI50 is > 100 µM (inactive) in the test with BT-549; above 100 µM in the test on HCT-15; > 100 µM (inactive) with EKVX; 51.8 µM (inactive) in the test on SF-268; 89.7 µM (inactive) with A498; > 100 µM (inactive) in the test on SK-OV-3. Moreover, the GI50 was > 100 µM (inactive) with SR; > 100 µM (inactive) with OVCAR-3; > 100 µM (inactive) with SW-620; 9.51 µM (inactive) in the test on PC-3; 74.6 µM (inactive) in the test with NCI-H23; > 100 µM (inactive) in the test with SK-MEL-5. Also, the GI50 is > 100 µM (inactive) in the test on M14 and 53.2 µM (inactive) in the test on TK-10.

With `Nc1ccc2nc3n(c(=O)c2c1)CCCCC3`, the GI50 in the test on CCRF-CEM, in the test with NCI/ADR-RES, with UACC-257, in the test with RXF 393, in the test on K562 and in the test with OVCAR-4 was > 100 µM (inactive) throughout. In addition, the GI50 is 89.9 µM (inactive) in the test with BT-549; above 100 µM in the test with HCT-15; > 100 µM (inactive) with EKVX; > 100 µM (inactive) in the test with SF-268; > 100 µM (inactive) in the test with A498; > 100 µM (inactive) with SK-OV-3. In addition, the GI50 in the test with SR, with OVCAR-3, in the test with SW-620, in the test with PC-3, with NCI-H23 and in the test on SK-MEL-5 was > 100 µM (inactive) in each case. The GI50 in the test with M14 and in the test on TK-10 was > 100 µM (inactive) in each case.

Consider `O=c1c2cc3c(cc2[nH]c2ncccc12)OCO3`, for which the GI50 with CCRF-CEM, in the test with NCI/ADR-RES, in the test on UACC-257, in the test with RXF 393, in the test with K562 and in the test with OVCAR-4 was > 10 µM (inactive) each time. Also, the GI50 in the test on BT-549 is > 10 µM (inactive); with HCT-15, above 10 µM; with EKVX, > 10 µM (inactive); in the test with SF-268, > 10 µM (inactive); in the test with A498, > 10 µM (inactive); with SK-OV-3, > 10 µM (inactive). Also, the GI50 with SR, with OVCAR-3, with SW-620, with PC-3, in the test with NCI-H23 and with SK-MEL-5 was > 10 µM (inactive) each time. In addition, the GI50 with M14 and with TK-10 was > 10 µM (inactive) each time.

With `O=[N+]([O-])/C(Cl)=C(\NCCO)C(Cl)=C(Cl)Cl`, the GI50 with CCRF-CEM is 16.9 µM (inactive); in the test with NCI/ADR-RES, 61.1 µM (inactive); in the test with UACC-257 it was > 100 µM (inactive); in the test with RXF 393, 56.1 µM (inactive); in the test on K562 it was 8.2 µM (inactive); in the test with OVCAR-4 it was 59.4 µM (inactive). In addition, the GI50 with BT-549 was > 79.8 µM (inactive); with HCT-15, 30.8 µM; with EKVX it was > 100 µM (inactive); in the test with SF-268, 87.9 µM (inactive); in the test on A498, > 100 µM (inactive); in the test with SK-OV-3, > 100 µM (inactive). Besides, the GI50 is 20.5 µM (inactive) in the test on SR; 60.4 µM (inactive) in the test on OVCAR-3; 41.3 µM (inactive) in the test with SW-620; 87.3 µM (inactive) with PC-3; 72.1 µM (inactive) in the test with NCI-H23; > 96.4 µM (inactive) in the test with SK-MEL-5. Besides, the GI50 with M14 is 38.8 µM (inactive); in the test with TK-10, > 89.3 µM (inactive).

In the case of `COC1=CC(=O)C2=C(C1=O)[C@H]1CC[C@]3(C)[C@@H](OC(C)=O)CC[C@H]3[C@@H]1CC2`, the GI50 was 25.4 µM (inactive) with CCRF-CEM; 32.7 µM (inactive) with NCI/ADR-RES; 27.1 µM (inactive) with UACC-257; 61.2 µM (inactive) with RXF 393; 44.4 µM (inactive) in the test with K562; 16.5 µM (inactive) with OVCAR-4. The GI50 is > 100 µM (inactive) in the test with BT-549; 49.5 µM in the test with HCT-15; 13.6 µM (inactive) in the test on EKVX; 42.1 µM (inactive) in the test with SF-268; > 100 µM (inactive) in the test on A498; > 100 µM (inactive) in the test with SK-OV-3. Further, the GI50 in the test with SR is 37.4 µM (inactive); in the test on OVCAR-3, > 100 µM (inactive); in the test with SW-620 it was > 100 µM (inactive); with PC-3, 39.9 µM (inactive); with NCI-H23 it was 40.3 µM (inactive); in the test on SK-MEL-5, 21.4 µM (inactive). Moreover, the GI50 with M14 and in the test with TK-10 was > 100 µM (inactive) in each case.

For the compound `Cc1cccc(NC(=S)N/N=C(/c2ccccc2)c2ccccn2)c1`, the GI50 in the test on CCRF-CEM was < 0.01 µM (active); in the test on NCI/ADR-RES, 0.138 µM (active); with UACC-257 it was < 0.0162 µM (active); with RXF 393 it was 0.667 µM (active); in the test with K562, < 0.0135 µM (active); in the test with OVCAR-4 it was 0.368 µM (active). The GI50 was 2.5 µM (inactive) in the test with BT-549; 0.0255 µM with HCT-15; 0.0885 µM (active) in the test with EKVX; 0.0863 µM (active) with SF-268; 1.98 µM (inactive) in the test on A498; 0.038 µM (active) with SK-OV-3. Further, the GI50 was < 0.0144 µM (active) in the test on SR; < 0.0182 µM (active) in the test with OVCAR-3; < 0.019 µM (active) in the test on SW-620; < 0.0143 µM (active) with PC-3; < 0.0282 µM (active) in the test on NCI-H23; 0.108 µM (active) in the test with SK-MEL-5. The values for the GI50 in the test with M14 and in the test on TK-10 were < 0.01 µM (active) and 0.117 µM (active), respectively.

`C1CN1c1nc(N2CC2)nc(N2CC2)n1`: the GI50 with CCRF-CEM was 0.82 µM (active); in the test on NCI/ADR-RES, 5.42 µM (inactive); with UACC-257, 10.7 µM (inactive); in the test with RXF 393, 6.78 µM (inactive); in the test on K562, 10.4 µM (inactive); in the test on OVCAR-4 it was 16.2 µM (inactive). Further, the GI50 was 15.9 µM (inactive) with BT-549; 12.9 µM in the test on HCT-15; 19.5 µM (inactive) in the test on EKVX; 2.99 µM (inactive) with SF-268; 9.95 µM (inactive) in the test with A498; 8.87 µM (inactive) in the test on SK-OV-3. The GI50 with SR is 0.5 µM (active); in the test on OVCAR-3 it was 16 µM (inactive); with SW-620, 11 µM (inactive); in the test with PC-3 it was 12.3 µM (inactive); in the test on NCI-H23, 2.73 µM (inactive); in the test on SK-MEL-5, 6.19 µM (inactive). For the same compound, the GI50 in the test with M14 is 4.84 µM (inactive); with TK-10, 24 µM (inactive).

In the case of `N#CC(C#N)=C(N)/C(C#N)=C/c1cc(O)c(O)c(Br)c1`, the GI50 in the test with CCRF-CEM was 28.2 µM (inactive); in the test with NCI/ADR-RES, 36.4 µM (inactive); with UACC-257, 72.4 µM (inactive); in the test with RXF 393, > 100 µM (inactive); in the test with K562, 46.6 µM (inactive); with OVCAR-4, 38.6 µM (inactive). In addition, the GI50 in the test with BT-549 is > 100 µM (inactive); with HCT-15 it was 48.8 µM; with EKVX it was 52.8 µM (inactive); with SF-268, > 62.5 µM (inactive); with A498, > 100 µM (inactive); in the test on SK-OV-3 it was > 93.1 µM (inactive). The GI50 is 37.8 µM (inactive) in the test on SR; 27.5 µM (inactive) in the test with OVCAR-3; 51.6 µM (inactive) with SW-620; 92.5 µM (inactive) in the test on PC-3; > 100 µM (inactive) with NCI-H23; 60.3 µM (inactive) in the test on SK-MEL-5. Also, the GI50 was > 75.9 µM (inactive) in the test on M14 and > 100 µM (inactive) in the test on TK-10.

Take `COc1c(O)cc2oc(-c3ccc(O)cc3)cc(=O)c2c1O` [HISPIDULIN]: the GI50 in the test with CCRF-CEM is 20.6 µM (inactive); in the test with NCI/ADR-RES it was 36.1 µM (inactive); with UACC-257, > 100 µM (inactive); in the test on RXF 393, 51.5 µM (inactive); in the test with K562, 34.8 µM (inactive); in the test on OVCAR-4 it was 35.8 µM (inactive). In addition, the GI50 in the test with BT-549 is 28.3 µM (inactive); in the test on HCT-15, 38.7 µM; in the test with EKVX it was 8.07 µM (inactive); with SF-268 it was 46.6 µM (inactive); in the test with A498, 2.57 µM (inactive); with SK-OV-3, 48.2 µM (inactive). For the same compound, the GI50 with SR was 27.9 µM (inactive); with OVCAR-3, 44.1 µM (inactive); in the test with SW-620, 34.1 µM (inactive); in the test with PC-3, 34.2 µM (inactive); with NCI-H23, 42.2 µM (inactive); in the test with SK-MEL-5 it was 15.5 µM (inactive). Moreover, the GI50 in the test with M14 was 38.6 µM (inactive); in the test on TK-10 it was 39.2 µM (inactive).
